Consider 10 compounds from patent publication US20230150974A1 (Foghorn Therapeutics Inc., priority 2020, published 2023).

The target of one assay is T1, HiBiT-BRM (Homo sapiens, UniProt P51531).
T1 construct: expressed in transfected cells
Kind of assay: HiBiT-BRM cell-based degradation assay (Nano-Glo HiBiT Lytic Detection). As to conditions: HeLa cells expressing HiBiT-BRM, 24 h; for DC50: read-out: BRM HiBit Degradation IC50. Here is the method:
(§1) Procedure: A stable HeLa cell line expressing HiBiT-BRM was generated. On day 0, 5000 cells were seeded in 40 μL of media into each well of 384-well cell culture plates. […] Subsequently plates were incubated for 24 h in a standard tissue culture incubator and equilibrated at room temperature for 15 minutes. Nano-Glo HiBiT Lytic Detection System (Promega N3050) reagent was freshly prepared and 20 ul was added to each well. Upon addition of this LgBit-containing reagent, the HiBiT and LgBiT proteins associate to form the luminescent NanoBiT luciferase. The plates were shaken for 10 minutes at room temperature and the bioluminescence read using an EnVision plate reader (PerkinElmer).
(§2) The degradation % was calculated using the following formula: % degradation=100%−100%×(LumSample−LumLC)/(LumHC−LumLC). DMSO treated cells are employed as High Control (HC) and 2 μM of a known BRM/BRG1 degrader standard treated cells are employed as Low Control (LC).
In general terms: HiBiT is a short tag that completes a luciferase, so light tracks the accessible tagged protein.

The target of the next assay is T2, HiBit-BRG1 (Homo sapiens, UniProt P51532).
T2 construct: expressed in transfected cells
T2 sequence (P51532 whole entry): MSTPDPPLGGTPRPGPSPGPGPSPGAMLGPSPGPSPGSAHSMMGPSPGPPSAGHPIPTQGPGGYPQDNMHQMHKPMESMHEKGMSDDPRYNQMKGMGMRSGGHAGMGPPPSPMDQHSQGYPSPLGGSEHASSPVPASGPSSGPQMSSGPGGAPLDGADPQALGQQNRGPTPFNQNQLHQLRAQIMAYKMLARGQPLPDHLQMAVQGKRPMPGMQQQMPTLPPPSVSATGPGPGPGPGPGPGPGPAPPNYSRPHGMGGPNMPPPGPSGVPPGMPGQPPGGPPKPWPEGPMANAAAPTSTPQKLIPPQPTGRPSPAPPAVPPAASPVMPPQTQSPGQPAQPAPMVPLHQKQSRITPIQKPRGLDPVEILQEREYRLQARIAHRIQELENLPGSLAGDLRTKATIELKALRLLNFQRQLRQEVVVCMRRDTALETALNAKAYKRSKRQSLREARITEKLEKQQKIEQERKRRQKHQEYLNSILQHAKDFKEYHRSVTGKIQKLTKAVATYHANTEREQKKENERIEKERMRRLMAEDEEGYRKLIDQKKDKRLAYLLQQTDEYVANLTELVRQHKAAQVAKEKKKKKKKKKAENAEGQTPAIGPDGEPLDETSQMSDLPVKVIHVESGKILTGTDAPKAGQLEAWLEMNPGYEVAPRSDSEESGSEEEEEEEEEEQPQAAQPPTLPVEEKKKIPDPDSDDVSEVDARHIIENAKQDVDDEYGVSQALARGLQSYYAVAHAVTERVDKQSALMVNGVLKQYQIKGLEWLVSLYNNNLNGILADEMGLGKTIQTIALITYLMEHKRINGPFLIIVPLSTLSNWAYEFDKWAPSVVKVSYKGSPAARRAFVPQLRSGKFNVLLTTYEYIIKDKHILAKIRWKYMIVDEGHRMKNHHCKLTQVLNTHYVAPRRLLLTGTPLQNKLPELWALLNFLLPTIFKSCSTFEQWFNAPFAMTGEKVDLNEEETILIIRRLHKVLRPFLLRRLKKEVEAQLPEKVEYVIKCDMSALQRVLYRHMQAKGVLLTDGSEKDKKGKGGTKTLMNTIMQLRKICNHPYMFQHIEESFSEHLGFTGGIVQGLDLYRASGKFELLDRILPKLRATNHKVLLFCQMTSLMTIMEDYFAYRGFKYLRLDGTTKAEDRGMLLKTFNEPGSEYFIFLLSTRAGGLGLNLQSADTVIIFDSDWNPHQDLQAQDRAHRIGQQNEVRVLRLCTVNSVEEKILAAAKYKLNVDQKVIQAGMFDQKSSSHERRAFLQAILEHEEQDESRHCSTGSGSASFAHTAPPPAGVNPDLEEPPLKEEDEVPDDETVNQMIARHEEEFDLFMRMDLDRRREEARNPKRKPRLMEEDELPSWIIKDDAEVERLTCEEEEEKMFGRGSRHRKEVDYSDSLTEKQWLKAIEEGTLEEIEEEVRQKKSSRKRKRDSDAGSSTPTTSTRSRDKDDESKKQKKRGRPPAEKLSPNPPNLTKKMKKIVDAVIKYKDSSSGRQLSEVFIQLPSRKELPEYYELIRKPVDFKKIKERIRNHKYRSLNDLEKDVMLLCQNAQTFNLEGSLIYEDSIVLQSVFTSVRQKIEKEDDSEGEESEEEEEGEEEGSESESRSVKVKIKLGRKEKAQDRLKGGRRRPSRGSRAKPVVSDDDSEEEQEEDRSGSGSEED
Kind of assay: HiBit-BRG1 cell-based degradation assay (Nano-Glo HiBiT Lytic Detection). As to conditions: HeLa cells expressing HiBit-BRG1 and LgBit, 24 h; for DC50: read-out: BRG1 HiBit Degradation IC50; for Dmax: read-out: BRG1 HiBit Degradation Maximum (%). On the procedure:
as §1
For measurement of BRG1 degradation, a stable HeLa cell line expressing HiBit-BRG1 and LgBit was generated. The same protocol as above was then followed.
as §2

Where a name gives a salt, the structure may show the parent alone.

T1 sequence (P51531 whole entry): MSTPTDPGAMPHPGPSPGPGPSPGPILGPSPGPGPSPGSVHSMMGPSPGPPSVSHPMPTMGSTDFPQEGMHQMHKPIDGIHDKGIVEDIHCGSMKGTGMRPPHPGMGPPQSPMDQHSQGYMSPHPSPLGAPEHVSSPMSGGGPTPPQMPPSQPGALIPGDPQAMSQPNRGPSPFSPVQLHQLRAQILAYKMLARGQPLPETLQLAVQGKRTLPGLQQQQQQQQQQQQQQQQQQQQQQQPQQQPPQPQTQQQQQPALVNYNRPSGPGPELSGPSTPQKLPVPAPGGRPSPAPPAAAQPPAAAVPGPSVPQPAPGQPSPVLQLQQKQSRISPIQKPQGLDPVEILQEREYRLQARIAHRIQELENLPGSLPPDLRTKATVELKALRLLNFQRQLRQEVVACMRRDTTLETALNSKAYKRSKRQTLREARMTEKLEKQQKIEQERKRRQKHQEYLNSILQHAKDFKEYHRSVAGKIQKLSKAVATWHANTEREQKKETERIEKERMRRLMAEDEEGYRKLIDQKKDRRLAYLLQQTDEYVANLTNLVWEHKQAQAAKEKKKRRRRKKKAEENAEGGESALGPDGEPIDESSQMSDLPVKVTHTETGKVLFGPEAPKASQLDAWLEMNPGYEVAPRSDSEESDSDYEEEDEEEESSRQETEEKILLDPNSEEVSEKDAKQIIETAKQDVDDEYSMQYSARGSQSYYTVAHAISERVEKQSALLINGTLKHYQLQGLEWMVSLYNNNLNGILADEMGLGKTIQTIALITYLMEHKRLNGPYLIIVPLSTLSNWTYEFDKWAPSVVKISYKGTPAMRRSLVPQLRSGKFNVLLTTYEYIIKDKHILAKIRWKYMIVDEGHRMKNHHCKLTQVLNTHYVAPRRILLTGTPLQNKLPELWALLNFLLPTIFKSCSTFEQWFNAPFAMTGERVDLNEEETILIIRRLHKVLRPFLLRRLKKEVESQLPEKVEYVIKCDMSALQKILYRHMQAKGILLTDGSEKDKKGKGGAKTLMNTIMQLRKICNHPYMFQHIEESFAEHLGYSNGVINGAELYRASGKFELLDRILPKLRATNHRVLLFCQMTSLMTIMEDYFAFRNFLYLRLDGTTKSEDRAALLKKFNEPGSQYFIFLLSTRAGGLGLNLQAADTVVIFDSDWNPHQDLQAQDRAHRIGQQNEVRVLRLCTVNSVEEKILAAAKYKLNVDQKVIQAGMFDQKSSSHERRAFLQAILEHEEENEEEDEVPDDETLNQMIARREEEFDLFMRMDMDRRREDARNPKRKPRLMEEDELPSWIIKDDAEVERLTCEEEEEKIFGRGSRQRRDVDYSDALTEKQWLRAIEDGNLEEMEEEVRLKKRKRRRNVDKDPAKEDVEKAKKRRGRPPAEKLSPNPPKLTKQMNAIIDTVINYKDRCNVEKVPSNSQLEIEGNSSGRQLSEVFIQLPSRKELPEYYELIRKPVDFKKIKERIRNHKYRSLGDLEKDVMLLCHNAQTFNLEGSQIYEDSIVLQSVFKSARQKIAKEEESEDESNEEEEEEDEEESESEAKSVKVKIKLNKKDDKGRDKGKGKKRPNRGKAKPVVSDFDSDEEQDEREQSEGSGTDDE

Turning to `Cc1ncsc1-c1ccc([C@H](C)NC(=O)[C@@H]2C[C@@H](O)CN2C(=O)[C@@H](NC(=O)CCNCCCCCCCCCCC(=O)NCc2ccc(CCOc3cc(-c4ccccc4O)nnc3N)cc2)C(C)(C)C)cc1` [Compound 256, (2S,4R)-1-((S)-2-(3-((11-((4-(2-((3-amino-6-(2-hydroxyphenyl)pyridazin-4-yl)oxy)ethyl)benzyl)amino)-11-oxoundecyl)amino)propanamido)-3,3-dimethylbutanoyl)-4-hydroxy-N-((S)-1-(4-(4-methylthiazol-5-yl)phenyl)ethyl)pyrrolidine-2-carboxamide], on HiBiT-BRM, the “BRM HiBit Degradation Maximum (%)” value is reported as “C (“C” indicates maximum degradation <50%)” and the DC50 was above 1000 nM. In addition, at HiBit-BRG1, the DC50 is above 1000 nM and the Dmax was below 50%.
For `Cc1ncsc1-c1ccc(CNC(=O)[C@@H]2C[C@@H](O)CN2C(=O)[C@@H](NC(=O)CCN2CC(C3CN(C(=O)c4ccc(CCOc5cc(-c6ccccc6O)nnc5N)cc4)C3)C2)C(C)(C)C)cc1` [Compound 224, (2S,4R)-1-((S)-2-(3-(1′-(4-(2-((3-amino-6-(2-hydroxyphenyl)pyridazin-4-yl)oxy)ethyl)benzoyl)-[3,3′-biazetidin]-1-yl)propanamido)-3,3-dimethylbutanoyl)-4-hydroxy-N-(4-(4-methylthiazol-5-yl)benzyl)pyrrolidine-2-carboxamide], at HiBiT-BRM, the “BRM HiBit Degradation Maximum (%)” value was “C (“C” indicates maximum degradation <50%)” and the DC50 was above 1000 nM. At HiBit-BRG1, the DC50 was above 1000 nM and the Dmax was below 50%.
On to `CN(CCCCCOc1cccc2c1C(=O)N(C1CCC(=O)NC1=O)C2=O)Cc1ccc(CCN(C)c2cc(-c3ccccc3O)nnc2N)cc1` (stereo not shown) [Compound 145, 4-((5-((4-(2-((3-amino-6-(2-hydroxyphenyl)pyridazin-4-yl)(methyl)amino)ethyl)benzyl)(methyl)amino)pentyl)oxy)-2-(2,6-dioxopiperidin-3-yl)isoindoline-1,3-dione formate], for which, at HiBiT-BRM, the “BRM HiBit Degradation Maximum (%)” value is given as “C (“C” indicates maximum degradation <50%)” and the DC50 is above 1000 nM. Also, at HiBit-BRG1, the DC50 is above 1000 nM and the Dmax is below 50%.
Turning to `Cc1ncsc1-c1ccc([C@H](C)NC(=O)[C@@H]2C[C@@H](O)CN2C(=O)[C@@H](NC(=O)CCCCCCCCCCCCCC(=O)NCc2ccc(CCN(C)c3cc(-c4ccccc4O)nnc3N)cc2)C(C)(C)C)cc1` [Compound 255, N1-(4-(2-((3-amino-6-(2-hydroxyphenyl)pyridazin-4-yl)(methyl)amino)ethyl)benzyl)-N15-((S)-1-((2S,4R)-4-hydroxy-2-(((S)-1-(4-(4-methylthiazol-5-yl)phenyl)ethyl)carbamoyl)pyrrolidin-1-yl)-3,3-dimethyl-1-oxobutan-2-yl)pentadecanediamide], on HiBiT-BRM, the “BRM HiBit Degradation Maximum (%)” value was “A (“A” indicates maximum degradation ≥75%)” and the DC50 was above 10 nM. In addition, at HiBit-BRG1, the DC50 was above 1000 nM and the Dmax is below 50%.
On to `Cc1ncsc1-c1ccc(CNC(=O)[C@@H]2C[C@@H](O)CN2C(=O)[C@@H](NC(=O)CCCCCCCCCNCc2ccc(CCNc3cc(-c4ccccc4O)nnc3N)cc2)C(C)(C)C)cc1` [Compound 139, (2S,4R)-1-((S)-2-(10-((4-(2-((3-amino-6-(2-hydroxyphenyl)pyridazin-4-yl)amino)ethyl)benzyl)amino)decanamido)-3,3-dimethylbutanoyl)-4-hydroxy-N-(4-(4-methylthiazol-5-yl)benzyl)pyrrolidine-2-carboxamide], for which, at HiBiT-BRM, the “BRM HiBit Degradation Maximum (%)” value is “A (“A” indicates maximum degradation ≥75%)” and the DC50 was above 100 nM. Also, on HiBit-BRG1, the DC50 is above 1000 nM and the Dmax was above 50%.
The matching figures for `Cc1ncsc1-c1ccc(CNC(=O)[C@@H]2C[C@@H](O)CN2C(=O)[C@@H](NC(=O)CCCCCCCCCCCCCC(=O)NCc2ccc(CCOc3cc(-c4ccccc4O)nnc3N)cc2)C(C)(C)C)cc1` [Compound 35, N1-(4-(2-((3-amino-6-(2-hydroxyphenyl)pyridazin-4-yl)oxy)ethyl)benzyl)-N15-((S)-1-((2S,4R)-4-hydroxy-2-((4-(4-methylthiazol-5-yl)benzyl)carbamoyl)pyrrolidin-1-yl)-3,3-dimethyl-1-oxobutan-2-yl)pentadecanediamide]: “A (“A” indicates maximum degradation ≥75%)”, above 10 nM, above 1000 nM and below 50%.
As to `Cc1ncsc1-c1ccc(CNC(=O)[C@@H]2C[C@@H](O)CN2C(=O)[C@@H](NC(=O)CCCCCCCCCNC(=O)c2ccc(CCN(C)c3cc(-c4ccccc4O)nnc3N)cc2)C(C)(C)C)cc1` [Compound 20, (2S,4R)-1-[(2S)-2-(10-[[4-(2-[[3-amino-6-(2-hydroxyphenyl)pyridazin-4-yl](methyl)amino]ethyl)phenyl]formamido]decanamido)-3,3-dimethylbutanoyl]-4-hydroxy-N-[[4-(4-methyl-1,3-thiazol-5-yl)phenyl]methyl]pyrrolidine-2-carboxamide], on HiBiT-BRM, the “BRM HiBit Degradation Maximum (%)” value is listed as “A (“A” indicates maximum degradation ≥75%)” and the DC50 is above 10 nM. Moreover, on HiBit-BRG1, the DC50 was above 100 nM and the Dmax is above 75%.
In the case of `Nc1nnc(-c2ccccc2O)cc1N1CCN(CCNC(=O)CCCCOc2cccc3c2C(=O)N(C2CCC(=O)NC2=O)C3=O)CC1` (stereo not shown) [Compound 89, N-(2-[4-[3-amino-6-(2-hydroxyphenyl)pyridazin-4-yl]piperazin-1-yl]ethyl)-5-[[2-(2,6-dioxopiperidin-3-yl)-1,3-dioxoisoindol-4-yl]oxy]pentanamide], on HiBiT-BRM, the “BRM HiBit Degradation Maximum (%)” value is reported as “C (“C” indicates maximum degradation <50%)” and the DC50 is above 1000 nM. For the same compound, at HiBit-BRG1, the DC50 was above 1000 nM and the Dmax was below 50%.
In the case of `Nc1nnc(-c2ccccc2O)cc1OCCc1ccc(C(=O)NCCCCCCCCCC(=O)NCc2ccc(S(=O)(=O)Nc3cccc4c(Cl)c[nH]c34)cc2)cc1` [Compound 12, 10-[[4-(2-[[3-amino-6-(2-hydroxyphenyl)pyridazin-4-yl]oxy]ethyl)phenyl]formamido]-N-([4-[(3-chloro-1H-indol-7-yl)sulfamoyl]phenyl]methyl)decanamide], on HiBiT-BRM, the “BRM HiBit Degradation Maximum (%)” value is listed as “C (“C” indicates maximum degradation <50%)” and the DC50 was above 1000 nM. At HiBit-BRG1, the DC50 was above 1000 nM and the Dmax is below 50%.
On to `Cc1ncsc1-c1ccc([C@H](C)NC(=O)[C@@H]2C[C@@H](O)CN2C(=O)[C@@H](c2cc(OCCN3CC4=C(C3)CN(C(=O)c3ccc(CCOc5cc(-c6ccccc6O)nnc5N)cc3)C4)no2)C(C)C)cc1` [Compound 213, (2S,4R)-1-((R)-2-(3-(2-(5-(4-(2-((3-amino-6-(2-hydroxyphenyl)pyridazin-4-yl)oxy)ethyl)benzoyl)-3,4,5,6-tetrahydropyrrolo[3,4-c]pyrrol-2(1H)-yl)ethoxy)isoxazol-5-yl)-3-methylbutanoyl)-4-hydroxy-N-((S)-1-(4-(4-methylthiazol-5-yl)phenyl)ethyl)pyrrolidine-2-carboxamide], for which, on HiBiT-BRM, the “BRM HiBit Degradation Maximum (%)” value was “A (“A” indicates maximum degradation ≥75%)” and the DC50 is above 10 nM. On HiBit-BRG1, the DC50 is above 100 nM and the Dmax was above 75%.
